From patent publication US11547681B2, “N-acylethanolamide derivatives and uses thereof” (ELIEM THERAPEUTICS, INC., priority 2016, dated 2023)

Assay: Liver microsomal stability, human
Details: for microsomal CLint / half-life / half-life at 1 μM: microsomes
Procedure: The reaction mixture, minus cofactors, was prepared as described below. The test article was added into the reaction mixture at a final concentration of 1 μM. […] An aliquot of the reaction mixture (without cofactor) was equilibrated in a shaking water bath at 37° C. for 3 minutes. The reaction was initiated by the addition of cofactor, and the mixture was incubated in a shaking water bath at 37° C. Aliquots (100 μL) were withdrawn at 0, 10, 20, 30, and 60 minutes. All samples were immediately combined with 400 μL of ice-cold 50/50 acetonitrile/H2O containing 0.1% formic acid and internal standard to terminate the reaction. The samples were then mixed and centrifuged to precipitate proteins. Calibration standards were prepared in matched matrix. All samples and standards were assayed by LC-MS/MS using electrospray ionization for both the dosed prodrug I-9 and the expected drug (PEA). Analytical conditions are outlined in Appendix 4-1. The test article concentration at each time point was compared to the test article concentration at time 0 to determine the percent remaining at each time point. Half-lives were calculated using GraphPad software, fitting to a single-phase exponential decay equation.
Reaction mixture, minus cofactors, was prepared as described below. Test article was added into the reaction mixture at a final concentration of 1 μM. […] An aliquot of the reaction mixture (without cofactor) was equilibrated in a shaking water bath at 37° C. for 3 minutes. The reaction was initiated by the addition of cofactor, and the mixture was incubated in a shaking water bath at 37° C. Aliquots (100 μL) were withdrawn at 0, 10, 20, 30, and 60 minutes. Test article samples were immediately combined with 300 μL of ice-cold acetonitrile containing 1% formic acid. Control samples were immediately combined with 400 μL of ice-cold 50/50 acetonitrile (ACN)/dH2O containing 0.1% formic acid and internal standard to terminate the reaction. Samples were then mixed and centrifuged to precipitate proteins. Calibration standards were prepared in matched matrix. Samples and standards were assayed by LC-MS/MS using electrospray ionization for both dosed prodrug and expected drug (PEA). Analytical conditions are outlined in Appendix 8-1. Test article concentration at each time point was compared to test article concentration at time 0 to determine the percent remaining at each time point. Half-lives were calculated using GraphPad software, fitting to a single-phase exponential decay equation.
Reaction mixture, minus cofactors, was prepared as described below. Test article was added into the reaction mixture at a final concentration of 1 μM. […] An aliquot of the reaction mixture (without cofactor) was equilibrated in a shaking water bath at 37° C. for 5 minutes. Reaction was initiated by the addition of cofactor, and the mixture was incubated in a shaking water bath at 37° C. Aliquots (100 μL) were withdrawn at 0, 10, 20, 30, and 60 minutes. Test article samples were immediately combined with 300 μL of ice-cold acetonitrile containing 1% formic acid. Control samples were immediately combined with 400 μL of ice-cold 50/50 acetonitrile (ACN)/dH2O containing 0.1% formic acid and internal standard to terminate the reaction. Samples were then mixed and centrifuged to precipitate proteins. Calibration standards were prepared in matched matrix. Samples and standards were assayed by LC-MS/MS using electrospray ionization for both the dosed prodrug and the expected drug (PEA). Analytical conditions are outlined in Appendix 10-1. Test article concentration at each time point was compared to the test article concentration at time 0 to determine the percent remaining at each time point. Half-lives were calculated using GraphPad software, fitting to a single-phase exponential decay equation.
Reaction mixture, minus cofactors, was prepared as described below. Test article was added into the reaction mixture at a final concentration of 1 μM.

In the case of `C[C@]12CC[C@H]3[C@@H](CCC4=CC(=O)CC[C@@]43C)[C@@H]1CC[C@@H]2O` [Testosterone, testosterone, reference compound], the “Clint, control compound” value (Example 4 control run) is reported as 0.0792 ml/min/mg protein, the “Half-life, control compound” value (Example 4 control run) is reported as 17 min and the microsomal CLint (both, human, CLint, Control Compound, Human liver microsomes) is reported as 66.7 µL/min/mg. For the same compound, the microsomal CLint (both, human, CLint, Control compound, Human liver microsomes) was 50.5 µL/min/mg, the microsomal CLint (both, human, CLint, Human liver microsomes, control compound) was 66.7 µL/min/mg and the microsomal CLint (both, human, CLint, control compound, human liver microsomes) was 151 µL/min/mg. The half-life (both, human, Control Compound, Human liver microsomes) was 21 min, the half-life (both, human, Control compound, Human liver microsomes) was 27 min and the half-life at 1 μM (both, human, Human liver microsomes) was 21 min. For the same compound, the microsomal CLint (male, Sprague-Dawley, CLint, Control Compound, Rat liver microsomes) was 1010 µL/min/mg, the microsomal CLint (male, Sprague-Dawley, CLint, Control compound, Rat liver microsomes) was 760 µL/min/mg and the microsomal CLint (male, Sprague-Dawley, CLint, Rat liver microsomes, control compound) was 1010 µL/min/mg. It also gave a microsomal CLint (male, Sprague-Dawley, CLint, control compound, rat liver microsomes) of 911 µL/min/mg, a microsomal CLint (male, Sprague-Dawley, Clint, control compound, Example 4 control run) of 1030 µL/min/mg and a half-life (male, Sprague-Dawley, Control Compound, Rat liver microsomes) of 1.4 min. For the same compound, the half-life (male, Sprague-Dawley, Control compound, Rat liver microsomes) was 1.8 min, the half-life at 1 μM (male, Sprague-Dawley, Rat liver microsomes) was 1.4 min and the half-life (male, Sprague-Dawley, control compound, Example 4 control run) was 1.4 min. It also gave a half-life (male, Sprague-Dawley, control compound, rat liver microsomes) of 1.5 min.
